System: not listed separately
Assay: Apparent permeability across apical to basolateral side in human Caco-2 cells at 10 uM by HPLC-UV or UHPLC-MS/MS analysis
Format: ADME, cell-based
Conditions: not given

| Papp A→B at 10 µM | Structure (SMILES) |
| --- | --- |
| 39 ×10⁻⁶ cm/s | CC(=O)N1Cc2cc(Cl)ccc2N(C(=O)N2CCN(c3ccccc3C)CC2)C1 |
| 48 ×10⁻⁶ cm/s | CN1CCN(C(=O)C2CCN(c3ccccn3)CC2)c2ccc(Cl)cc21 |
| 4.7 ×10⁻⁶ cm/s | C[C@H](NC(=O)[C@@H](CC(=O)N1CCC(N2CCCCC2)CC1)N1C(=O)[C@@H](N2C(=O)OC[C@@H]2c2ccccc2)[C@H]1/C=C/c1ccccc1)c1ccccc1 |

| Structure (SMILES) | Papp A→B at 10 µM |
| --- | --- |
| CN(C)CCn1cc(C(=O)N2CCC3(CC2)OCc2ccccc23)c2ccc(Cl)cc21 [RO-5028442] | 15 ×10⁻⁶ cm/s |

System: not listed separately
Assay: Efflux ratio of Apparent permeability across apical to basolateral side in human Caco-2 cells at 10 uM by HPLC-UV or UHPLC-MS/MS analysis
Format: ADME, cell-based
Conditions: not given

| efflux ratio at 10 µM | Structure (SMILES) |
| --- | --- |
| 0.7 | CC(=O)N1Cc2cc(Cl)ccc2N(C(=O)N2CCN(c3ccccc3C)CC2)C1 |
| 0.7 | CN1CCN(C(=O)C2CCN(c3ccccn3)CC2)c2ccc(Cl)cc21 |

| Structure (SMILES) | efflux ratio at 10 µM |
| --- | --- |
| CN(C)CCn1cc(C(=O)N2CCC3(CC2)OCc2ccccc23)c2ccc(Cl)cc21 [RO-5028442] | 0.9 |

System: not listed separately
Assay: Metabolic stability in NMRI mouse liver microsomes assessed as intrinsic clearance at 1 uM in presence of NADPH by HPLC-UV analysis
Format: ADME, Microsome
Conditions: read-out: CLH

| Structure (SMILES) | microsomal CLint at 1 µM |
| --- | --- |
| CC(=O)N1Cc2cc(Cl)ccc2N(C(=O)N2CCN(c3ccccc3C)CC2)C1 | 324 µL/min/mg |
| Cc1ccccc1N1CCN(C(=O)C2CN(C(=O)C3CCCC3)Cc3cc(Cl)ccc32)CC1 (racemic) | 341 µL/min/mg |
| CN1CCN(C(=O)C2CCN(c3ccccn3)CC2)c2ccc(Cl)cc21 | 132 µL/min/mg |
| CN(C)CCn1cc(C(=O)N2CCC3(CC2)OCc2ccccc23)c2ccc(Cl)cc21 [RO-5028442] | 341 µL/min/mg |
| C[C@H](NC(=O)[C@@H](CC(=O)N1CCC(N2CCCCC2)CC1)N1C(=O)[C@@H](N2C(=O)OC[C@@H]2c2ccccc2)[C@H]1/C=C/c1ccccc1)c1ccccc1 | 199 µL/min/mg |

More lines, now with the values ahead:

| microsomal CLint at 1 µM | Structure (SMILES) |
| --- | --- |
| 235 µL/min/mg | Cc1ccccc1N1CCN(C(=O)N2C[C@@H](C(=O)C3CCCC3)Cc3cc(Cl)ccc32)CC1 |
| 66 µL/min/mg | Cc1ccccc1N1CCN(C(=O)N2CCNc3cc(Cl)ccc32)CC1 |

System: not listed separately
Assay: Metabolic stability in Wistar rat liver microsomes assessed as intrinsic clearance at 1 uM in presence of NADPH by HPLC-UV analysis
Format: ADME, Microsome
Conditions: read-out: CLH

| Structure (SMILES) | microsomal CLint at 1 µM |
| --- | --- |
| CC(=O)N1Cc2cc(Cl)ccc2N(C(=O)N2CCN(c3ccccc3C)CC2)C1 | 212 µL/min/mg |
| Cc1ccccc1N1CCN(C(=O)C2CN(C(=O)C3CCCC3)Cc3cc(Cl)ccc32)CC1 (racemic) | 179 µL/min/mg |
| CN1CCN(C(=O)C2CCN(c3ccccn3)CC2)c2ccc(Cl)cc21 | 404 µL/min/mg |
| CN(C)CCn1cc(C(=O)N2CCC3(CC2)OCc2ccccc23)c2ccc(Cl)cc21 [RO-5028442] | 130 µL/min/mg |
| C[C@H](NC(=O)[C@@H](CC(=O)N1CCC(N2CCCCC2)CC1)N1C(=O)[C@@H](N2C(=O)OC[C@@H]2c2ccccc2)[C@H]1/C=C/c1ccccc1)c1ccccc1 | 31 µL/min/mg |

More lines, now with the values ahead:

| microsomal CLint at 1 µM | Structure (SMILES) |
| --- | --- |
| 170 µL/min/mg | Cc1ccccc1N1CCN(C(=O)N2C[C@@H](C(=O)C3CCCC3)Cc3cc(Cl)ccc32)CC1 |
| 265 µL/min/mg | Cc1ccccc1N1CCN(C(=O)N2CCNc3cc(Cl)ccc32)CC1 |

Molecular target: T1, Vasopressin V1a receptor (Homo sapiens, UniProt P37288)
Assay: Antagonist activity at human V1a receptor expressed in human 1321N1 cells assessed as decrease in Arg8-vasopressin-stimulated calcium flux at 10 uM by fluorometric calcium assay relative to control
Format: functional, cell-based
Conditions: not given
Target sequence in this assay (P37288 whole entry, looked up): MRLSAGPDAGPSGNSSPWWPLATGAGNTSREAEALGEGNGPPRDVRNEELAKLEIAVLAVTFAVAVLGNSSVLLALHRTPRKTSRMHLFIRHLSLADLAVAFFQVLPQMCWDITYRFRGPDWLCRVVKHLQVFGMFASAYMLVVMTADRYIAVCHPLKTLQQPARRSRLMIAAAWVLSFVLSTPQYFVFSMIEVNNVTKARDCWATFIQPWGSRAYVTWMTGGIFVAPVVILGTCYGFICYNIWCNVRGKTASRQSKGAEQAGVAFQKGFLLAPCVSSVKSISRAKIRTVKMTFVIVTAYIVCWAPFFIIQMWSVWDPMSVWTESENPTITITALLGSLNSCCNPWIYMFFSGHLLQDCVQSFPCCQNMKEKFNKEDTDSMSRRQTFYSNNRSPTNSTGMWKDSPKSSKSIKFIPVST

| inhibition | Structure (SMILES) |
| --- | --- |
| 11% | O=C(N1CCC(N2CCCCC2)CC1)N1CCNc2cc(Cl)ccc21 |

Same assay, conditions: filed as antagonist

| inhibition | Structure (SMILES) |
| --- | --- |
| 57% | C[C@@H]1CN(C(=O)N2CCNc3cc(Cl)ccc32)CCN1c1ccccn1 |
| 62% | CC(=O)N1CCN(C(=O)N2CCN(c3ccccc3C)CC2)c2ccc(F)cc21 |

System: not listed separately
Assay: Apparent permeability across apical to basolateral side in human Caco-2 cells at 1 uM by HPLC-UV or UHPLC-MS/MS analysis
Format: ADME, cell-based
Conditions: not given

| Papp A→B at 1 µM | Structure (SMILES) |
| --- | --- |
| 10 ×10⁻⁶ cm/s | Cc1ccccc1N1CCN(C(=O)N2C[C@@H](C(=O)C3CCCC3)Cc3cc(Cl)ccc32)CC1 |
| 4.3 ×10⁻⁶ cm/s | Cc1ccccc1N1CCN(C(=O)C2CN(C(=O)C3CCCC3)Cc3cc(Cl)ccc32)CC1 (racemic) |
| 17 ×10⁻⁶ cm/s | Cc1ccccc1N1CCN(C(=O)N2CCNc3cc(Cl)ccc32)CC1 |

Molecular target: T1, Vasopressin V1a receptor
Assay: Antagonist activity at human V1a receptor expressed in human 1321N1 cells assessed as decrease in Arg8-vasopressin-stimulated calcium flux by fluorometric calcium assay
Format: functional, cell-based
Conditions: not given
Target sequence in this assay (P37288 whole entry): as the sequence (P37288 whole entry, looked up) above

| Structure (SMILES) | IC50 |
| --- | --- |
| O=C(N1CCN(Cc2ccccc2)CC1)N1CCNc2cc(Cl)ccc21 | 8300 nM |
| CC(=O)N1Cc2cc(Cl)ccc2N(C(=O)N2CCN(c3ccccc3C)CC2)C1 | 50 nM |
| Cc1ccccc1N1CCN(C(=O)C2CN(C(=O)C3CCCC3)Cc3cc(Cl)ccc32)CC1 (racemic) | 35 nM |
| Cc1ccccc1N1CCN(C(=O)N2CCc3cc(Cl)ccc32)CC1 | 880 nM |
| CN1CCN(C(=O)C2CCN(c3ccccn3)CC2)c2ccc(Cl)cc21 | 260 nM |
| Cc1ccccc1N1CCN(C(=O)c2ccc(Cl)c(NC(=O)c3cccs3)c2)CC1 | 800 nM |
| Cc1ccccc1N1CCN(C(=O)N2CCNc3ccccc32)CC1 | 2800 nM |
| Cc1ccccc1N1CCN(C(=O)C2CN(C(=O)C3CCCCC3)Cc3cc(Cl)ccc32)CC1 (stereo in doubt; (-)-47) | 280 nM |
| CN(C)CCn1cc(C(=O)N2CCC3(CC2)OCc2ccccc23)c2ccc(Cl)cc21 [RO-5028442] | 2 nM |

Next, values leading:

| IC50 | Structure (SMILES) |
| --- | --- |
| 11 nM | Cc1ccccc1N1CCN(C(=O)N2CN(C(=O)C(C)C)Cc3cc(Cl)ccc32)CC1 |
| 2.4 nM | Cc1ccccc1N1CCN(C(=O)N2C[C@@H](C(=O)C3CCCC3)Cc3cc(Cl)ccc32)CC1 |
| 25 nM | Cc1ccccc1N1CCN(C(=O)N2C[C@H](C(=O)C3CCCC3)Cc3cc(Cl)ccc32)CC1 |
| 35 nM | Cc1ccccc1N1CCN(C(=O)N2CN(C(=O)CO)Cc3cc(Cl)ccc32)CC1 |
| 450 nM | Cc1cccnc1N1CCN(C(=O)N2CCNc3cc(Cl)ccc32)CC1 |
| 55 nM | CN1CCN(C(=O)N2CCN(c3ncccc3Cl)CC2)c2ccc(Cl)cc21 |
| 280 nM | O=C(N1CCC2(CC1)OCc1ccccc12)N1CCNc2cc(Cl)ccc21 |
| 35 nM | Cc1ccccc1N1CCN(C(=O)N2CN(C(=O)c3ccccc3)Cc3cc(Cl)ccc32)CC1 |
| 80 nM | Cc1ccccc1N1CCN(C(=O)N2CCNc3cc(Cl)ccc32)CC1 |

System: not listed separately
Assay: Metabolic stability in human liver microsomes assessed as intrinsic clearance at 1 uM in presence of NADPH by HPLC-UV analysis
Format: ADME, Microsome
Conditions: read-out: CLH

| Structure (SMILES) | microsomal CLint at 1 µM |
| --- | --- |
| CC(=O)N1Cc2cc(Cl)ccc2N(C(=O)N2CCN(c3ccccc3C)CC2)C1 | 88 µL/min/mg |
| Cc1ccccc1N1CCN(C(=O)C2CN(C(=O)C3CCCC3)Cc3cc(Cl)ccc32)CC1 (racemic) | 188 µL/min/mg |
| CN1CCN(C(=O)C2CCN(c3ccccn3)CC2)c2ccc(Cl)cc21 | 80 µL/min/mg |
| CN(C)CCn1cc(C(=O)N2CCC3(CC2)OCc2ccccc23)c2ccc(Cl)cc21 [RO-5028442] | 20 µL/min/mg |
| C[C@H](NC(=O)[C@@H](CC(=O)N1CCC(N2CCCCC2)CC1)N1C(=O)[C@@H](N2C(=O)OC[C@@H]2c2ccccc2)[C@H]1/C=C/c1ccccc1)c1ccccc1 | 156 µL/min/mg |

Results, then the compound that gave them:

| microsomal CLint at 1 µM | Structure (SMILES) |
| --- | --- |
| 72 µL/min/mg | Cc1ccccc1N1CCN(C(=O)N2C[C@@H](C(=O)C3CCCC3)Cc3cc(Cl)ccc32)CC1 |
| 210 µL/min/mg | Cc1ccccc1N1CCN(C(=O)N2CCNc3cc(Cl)ccc32)CC1 |

Molecular target: T1, Vasopressin V1a receptor
Assay: Displacement of [3H]AVP from human V1a receptor expressed in […] cells assessed as dissociation constant by radioligand binding assay
Format: cell-based, 1321N1
Conditions: not given
Target sequence in this assay (P37288 whole entry): as the sequence (P37288 whole entry, looked up) above

| Structure (SMILES) | Ki |
| --- | --- |
| C[C@@H]1CN(C(=O)N2CCNc3cc(Cl)ccc32)CCN1c1ccccn1 | 310 nM |
| O=C(N1CCN(Cc2ccccc2)CC1)N1CCNc2cc(Cl)ccc21 | 164 nM |
| CC(=O)N1Cc2cc(Cl)ccc2N(C(=O)N2CCN(c3ccccc3C)CC2)C1 | 6 nM |
| Cc1ccccc1N1CCN(C(=O)C2CN(C(=O)C3CCCC3)Cc3cc(Cl)ccc32)CC1 (racemic) | 6 nM |
| Cc1ccccc1N1CCN(C(=O)N2CCc3cc(Cl)ccc32)CC1 | 15 nM |
| CN1CCN(C(=O)C2CCN(c3ccccn3)CC2)c2ccc(Cl)cc21 | 14 nM |
| Cc1ccccc1N1CCN(C(=O)c2ccc(Cl)c(NC(=O)c3cccs3)c2)CC1 | 170 nM |
| Cc1ccccc1N1CCN(C(=O)N2CCNc3ccccc32)CC1 | 70 nM |
| Cc1ccccc1N1CCN(C(=O)C2CN(C(=O)C3CCCCC3)Cc3cc(Cl)ccc32)CC1 (stereo in doubt; (-)-47) | 40 nM |
| CC(=O)N1CCN(C(=O)N2CCN(c3ccccc3C)CC2)c2ccc(F)cc21 | 440 nM |
| CN(C)CCn1cc(C(=O)N2CCC3(CC2)OCc2ccccc23)c2ccc(Cl)cc21 [RO-5028442] | 5.5 nM |

Now from value to compound:

| Ki | Structure (SMILES) |
| --- | --- |
| 2.6 nM | Cc1ccccc1N1CCN(C(=O)N2CN(C(=O)C(C)C)Cc3cc(Cl)ccc32)CC1 |
| 0.6 nM | Cc1ccccc1N1CCN(C(=O)N2C[C@@H](C(=O)C3CCCC3)Cc3cc(Cl)ccc32)CC1 |
| 2.3 nM | Cc1ccccc1N1CCN(C(=O)N2C[C@H](C(=O)C3CCCC3)Cc3cc(Cl)ccc32)CC1 |
| 4 nM | Cc1ccccc1N1CCN(C(=O)N2CN(C(=O)CO)Cc3cc(Cl)ccc32)CC1 |
| 2 nM | Cc1cccnc1N1CCN(C(=O)N2CCNc3cc(Cl)ccc32)CC1 |
| 2 nM | CN1CCN(C(=O)N2CCN(c3ncccc3Cl)CC2)c2ccc(Cl)cc21 |
| 4 nM | O=C(N1CCC2(CC1)OCc1ccccc12)N1CCNc2cc(Cl)ccc21 |
| 3 nM | Cc1ccccc1N1CCN(C(=O)N2CN(C(=O)c3ccccc3)Cc3cc(Cl)ccc32)CC1 |
| 4.1 nM | Cc1ccccc1N1CCN(C(=O)N2CCNc3cc(Cl)ccc32)CC1 |

Source: ChEMBL document CHEMBL4725303, “New V1a receptor antagonist. Part 1. Synthesis and SAR development of urea derivatives” (Bioorg Med Chem Lett, 2020)
